Assay [1] can be described thus: Inhibition of Escherichia coli DNA gyraseB assessed as inhibition of pBR322 supercoiling by densitometry.
The test system of assay [2] is Staphylococcus aureus. The assay is described as follows: Antimicrobial activity against methicillin-sensitive Staphylococcus aureus 209P after 24 hrs by microdilution assay. Type of assay: functional. Background: In broth dilution the organism is exposed to a series of concentrations in liquid medium.
For assay [3], the system named is Staphylococcus aureus. The assay is described as follows: Antimicrobial activity against methicillin-resistant Staphylococcus aureus COL after 24 hrs by microdilution assay. Type of assay: functional.
The nature of assay [4]: Inhibition of Escherichia coli DNA gyraseB calculated by AutoDock docking into the ATP binding site.
For assay [5], the system named is Staphylococcus aureus. The assay is described as follows: Antimicrobial activity against methicillin-resistant Staphylococcus aureus N315 after 24 hrs by microdilution assay. Type of assay: functional. To be noted: N315, 24 h.
Assay [6] has as its system Staphylococcus aureus. The assay is described as follows: Antimicrobial activity against methicillin-resistant Staphylococcus aureus OM584 after 24 hrs by microdilution assay. The class given is functional. The note with it: OM584, 24 h.
Assay [7] relates to Staphylococcus aureus. The assay is described as follows: Antimicrobial activity against methicillin-resistant Staphylococcus aureus OM481 after 24 hrs by microdilution assay. The class given is functional. To be noted: OM481, 24 h.
Another assay has as its system Escherichia coli. In words: Antimicrobial activity against Escherichia coli K-12 after 24 hrs by microdilution assay. Type of assay: functional. To be noted: K-12, 24 h.
Assay [8] has as its system Enterococcus. The assay is described as follows: Antimicrobial activity against vancomycin-resistant Enterococcus NCTC 12201 after 24 hrs by microdilution assay. The class given is functional. To be noted: NCTC 12201, 24 h.
In assay [9] the test system is Enterococcus. The assay is described as follows: Antimicrobial activity against vancomycin-resistant Enterococcus FN-1 after 24 hrs by microdilution assay. Type of assay: functional. The note with it: FN-1, 24 h.
Assay [10] concerns Staphylococcus aureus. The assay is described as follows: Antimicrobial activity against vancomycin intermediate-resistant Staphylococcus aureus Mu50 after 24 hrs by microdilution assay. Type of assay: functional. The note with it: Mu50, 24 h.

pIC50, pKi: −log10 of the molar value. In brackets after ≈: the same amount, converted by molar mass.

As a reminder, the pIC50 is the negative decadic logarithm of the IC50, by convention in mol/L. Usually MIC stands for the least concentration at which growth counts as inhibited. Read a high MIC as a less susceptible organism. In general, pKi refers to the negative decadic logarithm of the Ki, by convention in mol/L. Turning to `CCn1cc(C(=O)O)c(=O)c2cc(F)c(N3CCNCC3)cc21` [NORFLOXACIN], the pIC50 in [1] is 7.05. Moreover, the minimal inhibitory concentration (MIC) came out at 0.5 µg/mL (≈ 1.57 µM) against Staphylococcus aureus [2]; 1 µg/mL (≈ 3.13 µM) in the assay on Staphylococcus aureus [3]; 2 µg/mL (≈ 6.26 µM) in the assay with Staphylococcus aureus [5]; 128 µg/mL (≈ 401 µM) with Staphylococcus aureus [6]; 64 µg/mL (≈ 200 µM) in the assay with Staphylococcus aureus [7]; 0.25 µg/mL (≈ 0.783 µM) in the assay on Escherichia coli. The pKi in assay [4] was 10.05.
Consider `CN[C@H](CC(C)C)C(=O)N[C@H]1C(=O)N[C@@H](CC(N)=O)C(=O)N[C@H]2C(=O)N[C@H]3C(=O)N[C@H](C(=O)N[C@H](C(=O)O)c4cc(O)cc(O)c4-c4cc3ccc4O)[C@H](O)c3ccc(c(Cl)c3)Oc3cc2cc(c3O[C@@H]2O[C@H](CO)[C@@H](O)[C@H](O)[C@H]2O[C@H]2C[C@](C)(N)[C@H](O)[C@H](C)O2)Oc2ccc(cc2Cl)[C@H]1O` [VANCOMYCIN], for which the MIC is 0.25 µg/mL (≈ 0.173 µM) with Staphylococcus aureus [2]; 0.25 µg/mL (≈ 0.173 µM) against Staphylococcus aureus [3]; greater than 128 µg/mL against Enterococcus [8]; 0.25 µg/mL (≈ 0.173 µM) in the assay with Staphylococcus aureus [5]; greater than 128 µg/mL against Enterococcus [9]; 0.25 µg/mL (≈ 0.173 µM) with Staphylococcus aureus [6]. For the same compound, the figures for the MIC against Staphylococcus aureus [10] and with Staphylococcus aureus [7] were 8 µg/mL (≈ 5.52 µM) and 0.25 µg/mL (≈ 0.173 µM), respectively.

Source of the values: ChEMBL document CHEMBL1221243, “Design, synthesis, and biological evaluation of a novel series of quercetin diacylglucosides as potent anti-MRSA and anti-VRE agents” (Bioorg Med Chem Lett, 2010).
